Results taken from article PMC10589313 (Nature Communications, 2023).
Values joined by “and” are separate entries in the source; they are usually repeats but may differ in a detail not shown here. Equal entries are not always repeated.

Assays:
human wild-type H4R = molecular target: T1, human wild-type H4R (Homo sapiens, UniProt Q9H3N8); experiment: TGFα shedding assay, wild-type H4R; type: cell-based
T1 construct: a mutant H4R (human, full-length, and untagged); expressed in transfected cells; host or cells: HEK293A
Procedure: (§1) The mutants were prepared using the primers listed in Supplementary Table 2. […] The chimeric Gαq/i1 subunit comprises the Gαq backbone and Gαi1-derived six-amino acid C-terminus and couples with Gi-coupled H4R but induces a Gq-dependent TGFα shedding response. After culturing for 1 day and incubating at 37 °C in a 5% CO2 incubator, the transfected cells were harvested by trypsinization, neutralized with Dulbecco’s modified Eagle’s medium containing 10% fetal calf serum (FCS) and penicillin–streptomycin, washed once with Hank’s balanced salt solution (HBSS) containing 5 mM of HEPES (pH 7.4), and resuspended in 6 mL of the HEPES-containing HBSS. The cell suspension was seeded into a 96-well plate at a volume of […] per well (typically, 48 wells per transfected cells) and incubated for 30 min in the CO2 incubator. Test compounds (10×, diluted in 0.01% BSA and 5 mM of HEPES-containing HBSS, […] volume) were added to duplicate wells and incubated for 1 h. After centrifugation, the conditioned medium ([…]) was transferred to an empty 96-well plate. AP reaction solution [10 mM of p-nitrophenylphosphate (p-NPP), 120 mM of Tris–HCl (pH 9.5), 40 mM of NaCl, and 10 mM of MgCl2] was dispensed into the cell culture plates and plates containing conditioned media ([…]). Absorbance was measured at 405 nm before and after a 1-h incubation period at 25 °C using a microplate reader (iMark™ Microplate Absorbance Reader; BioRad). Ligand-induced AP-TGFα release was calculated as previously described. The vehicle-treated AP-TGFα release signal was set as a baseline unless otherwise specified. AP-TGFα release signals were fitted with a four-parameter sigmoidal concentration-response curve, from which EC50 and Emax values were obtained, using GraphPad Prism 9 software (GraphPad Prism). Negative values of logarithmically transformed EC50 values (pEC50) were used to calculate the mean and standard error of independent experiments.
(§2) All functional study data were analyzed using Prism 9 (GraphPad) and are presented as mean ± standard error of the mean (SEM) of three independent experiments. Statistical analyses were performed using Prism 9 (GraphPad) with one-way analysis of variance followed by Dunnett’s post-hoc test. Values with p < 0.05 are considered statistically significant.

human H4R W348Y mutant = molecular target: T2, human H4R W348Y mutant (Homo sapiens, UniProt Q9H3N8, W348Y); experiment: TGFα shedding assay, H4R W348Y mutant; type: cell-based
T2 construct: a mutant H4R (human, full-length, and untagged); expressed in transfected cells; host or cells: HEK293A
Procedure: as §1
(§3) All functional study data were analyzed using Prism 9 (GraphPad) and are presented as mean ± standard error of the mean (SEM) of three independent experiments. […]

human H4R F344A mutant = molecular target: T3, human H4R F344A mutant (Homo sapiens, UniProt Q9H3N8, F344A); experiment: TGFα shedding assay, H4R F344A mutant; type: cell-based
T3 construct: a mutant H4R (human, full-length, and untagged); expressed in transfected cells; host or cells: HEK293A
Procedure: (§4) The mutants were prepared using the primers listed in Supplementary Table 2. […] The chimeric Gαq/i1 subunit comprises the Gαq backbone and Gαi1-derived six-amino acid C-terminus and couples with Gi-coupled H4R but induces a Gq-dependent TGFα shedding response. After culturing for 1 day and incubating at 37 °C in a 5% CO2 incubator, the transfected cells were harvested by trypsinization, neutralized with Dulbecco’s modified Eagle’s medium containing 10% fetal calf serum (FCS) and penicillin–streptomycin, washed once with Hank’s balanced salt solution (HBSS) containing 5 mM of HEPES (pH 7.4), and resuspended in 6 mL of the HEPES-containing HBSS. The cell suspension was seeded into a 96-well plate at a volume of […] per well (typically, 48 wells per transfected cells) and incubated for 30 min in the CO2 incubator. Test compounds (10×, diluted in 0.01% BSA and 5 mM of HEPES-containing HBSS, […] volume) were added to duplicate wells and incubated for 1 h. […] Absorbance was measured at 405 nm before and after a 1-h incubation period at 25 °C using a microplate reader (iMark™ Microplate Absorbance Reader; BioRad). Ligand-induced AP-TGFα release was calculated as previously described. […]
as §3

human H4R F344I mutant = molecular target: T4, human H4R F344I mutant (Homo sapiens, UniProt Q9H3N8, F344I); experiment: TGFα shedding assay, H4R F344I mutant; type: cell-based
T4 construct: a mutant H4R (human, full-length, and untagged); expressed in transfected cells; host or cells: HEK293A
Procedure: as §1, §2

H1R = conditions: in words; cited from earlier work
human H4R W348A mutant = molecular target: T5, human H4R W348A mutant (Homo sapiens, UniProt Q9H3N8, W348A); experiment: TGFα shedding assay, H4R W348A mutant; type: cell-based
T5 construct: a mutant H4R (human, full-length, and untagged); expressed in transfected cells; host or cells: HEK293A
Procedure: as §1, §3

human H4R Q347A mutant = molecular target: T6, human H4R Q347A mutant (Homo sapiens, UniProt Q9H3N8, Q347A); experiment: TGFα shedding assay, H4R Q347A mutant; type: cell-based
T6 construct: a mutant H4R (human, full-length, and untagged); expressed in transfected cells; host or cells: HEK293A
Procedure: as §1, §2

human H4R N147A mutant = molecular target: T7, human H4R N147A mutant (Homo sapiens, UniProt Q9H3N8, N147A); experiment: TGFα shedding assay, H4R N147A mutant; type: cell-based; conditions: for EC50: EC50 (nM)
T7 construct: a mutant H4R (human, full-length, and untagged); expressed in transfected cells; host or cells: HEK293A
Procedure: as §1, §2

human H4R E182A mutant = molecular target: T8, human H4R E182A mutant (Homo sapiens, UniProt Q9H3N8, E182A); experiment: TGFα shedding assay, H4R E182A mutant; type: cell-based
T8 construct: a mutant H4R (human, full-length, and untagged); expressed in transfected cells; host or cells: HEK293A
Procedure: as §4, §3

H3R = conditions: read-out: binding affinity for H3R; cited from earlier work
[1] = Imetit (M) -5 (log concentration), raw replicate values

T3 sequence (Q9H3N8 whole entry F344A): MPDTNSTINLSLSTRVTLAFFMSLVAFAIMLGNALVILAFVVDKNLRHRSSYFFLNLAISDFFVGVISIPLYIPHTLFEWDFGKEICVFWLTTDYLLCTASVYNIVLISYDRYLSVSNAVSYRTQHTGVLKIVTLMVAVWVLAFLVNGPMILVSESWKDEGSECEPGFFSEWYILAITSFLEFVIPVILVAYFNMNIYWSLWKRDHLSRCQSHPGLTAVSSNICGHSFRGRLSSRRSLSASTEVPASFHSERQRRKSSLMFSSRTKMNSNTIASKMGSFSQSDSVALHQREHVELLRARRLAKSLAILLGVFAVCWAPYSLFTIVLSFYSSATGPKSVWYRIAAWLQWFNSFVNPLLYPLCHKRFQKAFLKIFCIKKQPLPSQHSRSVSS
T8 sequence (Q9H3N8 whole entry E182A): as the sequence (Q9H3N8 whole entry F344A) above, with E182A, A344F counted along it
T6 sequence (Q9H3N8 whole entry Q347A): as the sequence (Q9H3N8 whole entry F344A) above, with A344F, Q347A counted along it
T1 sequence (Q9H3N8 whole entry): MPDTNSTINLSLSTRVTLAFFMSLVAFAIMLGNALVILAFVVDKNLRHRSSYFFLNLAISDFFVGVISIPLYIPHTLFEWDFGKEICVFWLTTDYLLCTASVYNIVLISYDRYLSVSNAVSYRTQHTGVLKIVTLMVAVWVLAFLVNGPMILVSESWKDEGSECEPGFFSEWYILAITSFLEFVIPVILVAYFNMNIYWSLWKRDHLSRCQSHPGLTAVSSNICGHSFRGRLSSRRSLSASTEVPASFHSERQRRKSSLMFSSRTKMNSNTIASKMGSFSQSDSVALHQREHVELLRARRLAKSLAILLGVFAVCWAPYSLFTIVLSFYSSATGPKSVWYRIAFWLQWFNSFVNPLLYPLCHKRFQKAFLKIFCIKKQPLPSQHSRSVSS
T7 sequence (Q9H3N8 whole entry N147A): as the sequence (Q9H3N8 whole entry F344A) above, with N147A, A344F counted along it
T2 sequence (Q9H3N8 whole entry W348Y): as the sequence (Q9H3N8 whole entry F344A) above, with A344F, W348Y counted along it
T4 sequence (Q9H3N8 whole entry F344I): as the sequence (Q9H3N8 whole entry F344A) above, with A344I counted along it
T5 sequence (Q9H3N8 whole entry W348A): as the sequence (Q9H3N8 whole entry F344A) above, with A344F, W348A counted along it

With N=C(N)SCCc1cnc[nH]1 [Imetit, imetit] the “Shedding assay response, WT” value (human wild-type H4R; [1]) was 14.3865 and 12.6364 and 12.8296 and 15.366 and 17.4678 and 18.6444 and 14.3694 and 15.3398 and 17.1099, the fold of change (human wild-type H4R; WT H4R, EC50 relative to WT) was 1 fold and the EC50 (human wild-type H4R; pEC50, hH4R, single experiments (3 columns), source data Figure 4e-f) was 35.8 nM and 30.7 nM. It also gave an EC50 (human wild-type H4R; pEC50 mean ± SEM, WT H4R, three independent experiments) of 29.5 nM, an Emax (human wild-type H4R; read-out: Emax (%) mean ± SEM) of 14.9 ± 1.19% and an EC50 (human H4R W348Y mutant) greater than 10000 nM. For the same compound, the “Shedding assay response, W348Y” value (human H4R W348Y mutant; [1]) was 5.993 and 7.639 and 4.713 and 7.402 and 9.589 and 3.141 and 9.854 and 11.9801 and 8.402, the “signaling activity at mutant, in words” value (human H4R W348Y mutant; W348Y (H1R mimic) mutant vs wild type) was “loss of imetit activity” and the EC50 (human H4R F344A mutant) was greater than 10000 nM. For the same compound, the “Shedding assay response, F344A” value (human H4R F344A mutant; [1]) was 3.594 and 4.917 and 1.113 and -1.672 and 3.266 and -0.2412 and 0.127 and -2.198 and -1.529, the EC50 (human H4R F344I mutant) was greater than 10000 nM and the “signaling activity at mutant, in words” value (human H4R F344I mutant; F344I (H1R mimic) mutant vs wild type) was “loss of imetit activity”. The “Shedding assay response, F344I” value (human H4R F344I mutant; [1]) was 1.112 and 4.483 and 7.185 and 5.21 and 4.635 and 3.564 and 4.726 and 4.072 and 2.0567, the “binding to H1R” value (H1R) was “does not bind” and the EC50 (human H4R W348A mutant) was greater than 10000 nM. For the same compound, the “Shedding assay response, W348A” value (human H4R W348A mutant; [1]) was 2.59 and 2.574 and 7.329 and -2.233 and 0.1771 and -0.5753 and 0.3498 and -1.339 and 0.3261, the EC50 (human H4R Q347A mutant; EC50 (nM), Q347A mutant) was 12.7 nM and the “Shedding assay response, Q347A” value (human H4R Q347A mutant; [1]) was 17.2563 and 18.9409 and 18.4053 and 16.608 and 19.8188 and 22.6245 and 22.4962 and 23.3465 and 23.6643. It also gave a fold of change (human H4R Q347A mutant; Q347A mutant, EC50 relative to WT) of 0.4 fold, an EC50 (human H4R Q347A mutant; pEC50 mean ± SEM, Q347A mutant) of 12.3 nM and an Emax (human H4R Q347A mutant; read-out: Emax (%) mean ± SEM) of 19.3 ± 1.1%. For the same compound, the EC50 (human H4R N147A mutant; N147A mutant) was 116 nM, the EC50 (human H4R N147A mutant; N147A, single experiments, source data Figure 4e-f) was 137 nM and 107 nM and 104 nM and the “Shedding assay response, N147A” value (human H4R N147A mutant; [1]) was 17.6838 and 20.1153 and 13.587 and 17.1019 and 17.2369 and 16.9193 and 20.3122 and 17.3343 and 19.4779. For the same compound, the fold of change (human H4R N147A mutant; N147A mutant, EC50 relative to WT) was 3.9 fold, the Emax (human H4R N147A mutant; read-out: Emax (%) mean ± SEM) was 17.2 ± 0.52% and the EC50 (human H4R E182A mutant) was greater than 10000 nM. For the same compound, the “Shedding assay response, E182A” value (human H4R E182A mutant; [1]) was 0.5777 and -0.6527 and 0.544 and 1.716 and -0.08867 and -2.204 and 4.0352 and 2.359 and 1.291 and the Ki (H3R) was 0.3 nM.
